Test results published in patent US7915293B2, “Ubiquitin ligase inhibitors” (Rigel Pharmaceuticals, Inc., priority 2003, dated 2011).

Experiments:
Parameters in all cases: key: “+” indicates that the compound exibits inhibitory activity; “−” indicates that low or no inhibitory activity was observed
A549 cells = experiment: Cell proliferation assay, photographic image analysis of proliferation, apoptosis and death (PAD assay), A549; format: cell-based; conditions: 6 concentrations tested
Description: (§1) A549 (ATCC# CCL-185), HeLa (ATCC# CCL-2), HCT116 (ATCC# CCL-247), and H1299 (ATCC# CRL-5803) cells were maintained in T175 flasks following the ATCC recommended media and handling procedures. Flasks reaching approximately 70% confluency were trypsinized and resuspended in RPMI media (Cell-Gro catalog number 10-040-CM) modified to contain 5% FBS, 100 ug/mlPen/Strep (Cell-Gro catalog number 30-002-CL), and 0.3 mg/ml L-Glutamine (Cell-Gro catalog number 25-003-CL). A 20,000 cells/ml solution was made for plating. Cells were plated in black Packard 96 well plates by placing 100 μl per well (2,000 cells per well).
(§2) Compounds and additional media were added 24 hours after cell plating. A compound master plate was created with concentrations 500 times greater than the final concentration added to the cells. All compound testing was done in duplicate using 6.3 fold dilutions starting with 10 mM. All outside wells (and 4 internal wells) were DMSO controls. Taxol and at least one additional control were run on all plates. Three microliters of the compound master plate were added to deep well blocks containing 750 μl of RPMI media. One hundred microliters were transferred from the compound/media deep well blocks to the plated cells resulting in a 500 fold dilution of the compounds. Cells were grown at 37° C., 5% CO2 for 48 hours.
(§3) Cells to be analyzed by photography were fixed and stained. One hundred microliters of media were removed and 100 μl of 9.3% […] was added to each well. Plates were left on the benchtop for 45 minutes. A staining solution containing 1.55 μl of 1 mg/ml DAPI added to 18.75 ml PBS was warmed for 15 minutes at 37° C. The cells were aspirated prior to washing with 100 μl of PBS. Seventy microliters of PBS were aspirated and 170 μl of the DAPI solution were added to each well of fixed cells. Plates were left at room temperature for one hour then aspirated and washed twice with 100 μl of PBS. The stained cells were left at 4° C. for a minimum of 16 hours before photographic analysis with Array Scan II (Cellomics). Analysis of the photographic images to determine numbers of live cells (proliferation), apoptotic cells and dead cells, were according to the methods described in U.S. Provisional Patent Application Ser. No. 60/406,714, which incorporated herein in its entirety.

HeLa cells = experiment: Cell proliferation assay, photographic image analysis of proliferation, apoptosis and death (PAD assay), HeLa; format: cell-based; conditions: 6 concentrations tested
Description: as §1, §2, §3

[1] = target: E3 (His-APC11/APC2-"APC") (Homo sapiens, UniProt Q9NYG5+Q9UJX6); experiment: Plate-based E3 ligase assay (APC FLAG), auto-ubiquitination; format: biochemical; conditions: 8 concentrations tested
Procedure, shortened: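 His-APC11/APC2 auto-ubiquitination was run in casein-blocked nickel plates for 1 h at room temperature, with E1 at 5 ng/well, UbcH5c at 20 ng/well and APC at 100 ng/well. Buffer was 62.5 mM Tris pH 7.6, 3 mM MgCl2, 1 mM DTT, 2.5 mM ATP and Flag-ubiquitin at 100 ng/well. Detection used anti-Flag/HRP chemiluminescence, and IC50 was typically from 6 or 8 concentrations versus a DMSO control.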

Chain of E3 (His-APC11/APC2-"APC") (Q9NYG5 whole entry): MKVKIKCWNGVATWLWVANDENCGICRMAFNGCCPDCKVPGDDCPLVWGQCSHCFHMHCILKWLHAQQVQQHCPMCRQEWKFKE
Chain of E3 (His-APC11/APC2-"APC") (Q9UJX6 whole entry): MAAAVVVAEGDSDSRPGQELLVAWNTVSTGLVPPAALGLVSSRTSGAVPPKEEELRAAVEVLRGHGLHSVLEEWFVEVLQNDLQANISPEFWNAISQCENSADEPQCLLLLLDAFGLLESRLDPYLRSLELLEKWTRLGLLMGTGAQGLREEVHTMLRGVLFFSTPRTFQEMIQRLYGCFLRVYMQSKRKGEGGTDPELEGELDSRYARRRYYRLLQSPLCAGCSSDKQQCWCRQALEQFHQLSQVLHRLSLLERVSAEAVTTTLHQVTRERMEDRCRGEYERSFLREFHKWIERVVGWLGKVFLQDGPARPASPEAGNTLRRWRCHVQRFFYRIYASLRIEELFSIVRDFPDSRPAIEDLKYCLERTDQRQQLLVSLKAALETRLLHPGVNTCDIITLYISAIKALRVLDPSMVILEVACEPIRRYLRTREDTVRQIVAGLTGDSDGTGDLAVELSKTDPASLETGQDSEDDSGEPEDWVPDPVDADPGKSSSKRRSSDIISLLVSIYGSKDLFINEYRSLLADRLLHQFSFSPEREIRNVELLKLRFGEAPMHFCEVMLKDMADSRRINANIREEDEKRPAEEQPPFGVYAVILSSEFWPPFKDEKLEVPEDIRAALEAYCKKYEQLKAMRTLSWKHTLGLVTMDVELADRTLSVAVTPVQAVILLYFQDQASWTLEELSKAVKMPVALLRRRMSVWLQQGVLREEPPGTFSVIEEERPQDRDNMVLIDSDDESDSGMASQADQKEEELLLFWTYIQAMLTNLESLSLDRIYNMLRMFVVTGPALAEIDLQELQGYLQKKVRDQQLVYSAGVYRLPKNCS

Row | APC Flag 8 pt [1] | SMILES | PAD Assay, A549 6 pt (A549 cells) | PAD Assay, HELA 6 pt (HeLa cells)
1 |  | O=S(=O)(c1ccccc1C(F)(F)F)N1CCC(Oc2ccccc2C(F)(F)F)CC1 [Example 302, 4-(2-(trifluoromethyl)phenoxy)-1-(2-(trifluoromethyl)phenylsulfonyl)piperidine] | + | +
2 | + | O=[N+]([O-])c1ccc(Oc2ccc(S(=O)(=O)Nc3cccc(Br)c3)cc2Cl)c(C(F)(F)F)c1 [Example 270, N-(3-bRomophenyl)-3-chloro-4-[4-nitro-2-(trifluoromethyl)phenoxy]benzenesulfonamide] | + | +
3 | + | O=S(=O)(Nc1ccc(Oc2ccc(Cl)cc2)cc1)c1cc(Cl)ccc1Cl [Example 276, 2,5-dichloro-N-[4-(4-chlorophenoxy)phenyl]benzenesulfonamide] | + | −
4 | + | O=[N+]([O-])c1ccc(Oc2c(Cl)cc(S(=O)(=O)Nc3ccc(C(F)(F)F)cc3Cl)cc2Cl)c(Cl)c1 [Compound 240, 3,5-dichloro-4-(2-chloro-4-nitrophenoxy)-N-[2-chloro-4-(trifluoromethyl)phenyl]benzenesulfonamide] | + | +
5 | + | O=S(=O)(Nc1ccc(Oc2ccc(F)cc2)c(Br)c1)c1ccc(F)cc1 [Example 283, N-[3-bRomo-4-(4-fluorophenoxy)phenyl]-4-fluorobenzenesulfonamide] | + | −
6 | + | O=[N+]([O-])c1ccc(Oc2ccc(S(=O)(=O)Nc3ccc(C(F)(F)F)cc3Cl)cc2Cl)c(C(F)(F)F)c1 [Compound 265, 3-chloro-N-[2-chloro-4-(trifluoromethyl)phenyl]-4-[4-nitro-2-(trifluoromethyl)phenoxy]benzenesulfonamide] | + | +
7 |  | O=S(=O)(Nc1ccc(Oc2cc(C(F)(F)F)ccn2)cc1)c1cccc(C(F)(F)F)c1 [Example 298, 3-(trifluoromethyl)-N-(4-(4-(trifluoromethyl)pyridin-2-yloxy)phenyl)benzenesulfonamide] | + | +
8 |  | O=S(=O)(c1cccc(Cl)c1)N1CCC(Oc2ccccc2C(F)(F)F)CC1 [Example 300, 1-(3-chlorophenylsulfonyl)-4-(2-(trifluoromethyl)phenoxy)piperidine] | + | +
9 |  | O=S(=O)(Nc1ccc(Oc2ncc(C(F)(F)F)cc2Cl)cc1)c1cccc(Cl)c1 [Compound 294, 3-chloro-N-(4-(3-chloro-5-(trifluoromethyl)pyridyn-2-yloxy)phenyl)benzenesulfonamide] | + | +
10 |  | O=S(=O)(c1cccc(C(F)(F)F)c1)N1CCC(Oc2ccccc2C(F)(F)F)CC1 [Example 301, 4-(2-(trifluoromethyl)phenoxy)-1-(3-(trifluoromethyl)phenylsulfonyl)piperidine] | + | +
11 |  | O=C(Nc1ccccc1C(F)(F)F)N1CCC(Oc2ccccc2C(F)(F)F)CC1 [Example 306, 4-(2-(trifluoromethyl)phenoxy)-N-(2-(trifluoromethyl)phenyl)piperidine-1-carboxamide] | − | −
12 |  | O=S(=O)(Nc1ccc(Oc2cc(C(F)(F)F)ccn2)cc1)c1ccccc1C(F)(F)F [Example 299, 2-(trifluoromethyl)-N-(4-(4-(trifluoromethyl)pyridin-2-yloxy)phenyl)benzenesulfonamide] | + | −
13 |  | O=S(=O)(Nc1ccc(Oc2ncccn2)c(Cl)c1)c1cccc(Cl)c1 [Compound 292, 3-chloro-N-[3-chloro-4-(pyrimidin-2-yloxy)phenyl]benzenesulfonamide] | + | −
14 |  | O=C(Nc1cccc(Cl)c1)N1CCC(Oc2ccccc2C(F)(F)F)CC1 [Compound 305, N-(3-chlorophenyl)-4-(2-(trifluoromethyl)phenoxy)piperidine-1-carboxamide] | + | +
15 |  | O=S(=O)(Nc1ccc(F)cc1C(F)(F)F)c1ccc(Oc2ncc(C(F)(F)F)cc2Cl)cc1 [Example 271, 4-{[3-chloro-5-(trifluoromethyl)pyridin-2-yl]oxy}-N-[4-fluoro-2-(trifluoromethyl)phenyl]benzenesulfonamide] | + | +
16 | + | N=C(NS(=O)(=O)c1cc(Cl)c(Oc2ccc([N+](=O)[O-])cc2Cl)c(Cl)c1)c1ccc(Cl)cc1 [Example 25, 4-chloro-N-{[3,5-dichloro-4-(2-chloro-4-nitrophenoxy)phenyl]sulfonyl}benzene-carboximidamide] | − | 
17 |  | O=S(=O)(Nc1ccc(Oc2cc(C(F)(F)F)ccn2)cc1)c1cccc(Cl)c1 [Example 297, 3-chloro-N-(4-(4-(trifluoromethyl)pyridin-2-yloxy)phenyl)benzenesulfonamide] | + | −
18 | + | O=[N+]([O-])c1ccc(Oc2c(Cl)cc(S(=O)(=O)Nc3ccc(F)cc3F)cc2Cl)c(Cl)c1 [Example 17, 3,5-dichloro-4-(2-chloro-4-nitrophenoxy)-N-(2,4-difluorophenyl)benzene-sulfonamide] | − | 
19 | − | O=[N+]([O-])c1ccc(Oc2c(Cl)cc(S(=O)(=O)N3CCCCC3)cc2Cl)c(Cl)c1 [Example 21, 1-{[3,5-dichloro-4-(2-chloro-4-nitrophenoxy)phenyl]sulfonyl}piperidine] | − | 
20 |  | O=S(=O)(Nc1ccc(Oc2ncc(C(F)(F)F)cc2Cl)cc1)c1cccc(C(F)(F)F)c1 [Example 295, N-(4-(3-chloro-5-(trifluoromethyl)pyridin-2-yloxy)phenyl)-3-(trifluoromethyl)benzenesulfonamide] | + | +
21 | + | N=C(NS(=O)(=O)c1cc(Cl)c(Oc2ccc([N+](=O)[O-])cc2Cl)c(Cl)c1)c1ccncc1 [Example 29, N-{[3,5-dichloro-4-(2-chloro-4-nitrophenoxy)phenyl]sulfonyl}pyridine-4-carboximidamide] | + | 
22 | − | N=C(CCl)NS(=O)(=O)c1cc(Cl)c(Oc2ccc([N+](=O)[O-])cc2)c(Cl)c1 [Example 31, 2-chloro-N-{[3,5-dichloro-4-(4-nitrophenoxy)phenyl]sulfonyl}ethanimidamide] | + | 
23 | − | N=C(NS(=O)(=O)c1cc(Cl)c(Oc2ccc([N+](=O)[O-])cc2)c(Cl)c1)c1cccnc1 [Example 60, N-{[3,5-dichloro-4-(4-nitrophenoxy)phenyl]sulfonyl}pyridine-3-carboximidamide] | + | 
24 | − | N=C(NS(=O)(=O)c1cc(Cl)c(Oc2ccc([N+](=O)[O-])cc2Cl)c(Cl)c1)c1cccnc1 [Example 26, N-{[3,5-dichloro-4-(2-chloro-4-nitrophenoxy)phenyl]sulfonyl}pyridine-3-carboximidamide] | + | 
